Source: patent US8173607B2, “Promoter for the production of hyaluronic acid containing ginsenoside compound K” (Amorepacific Corporation, priority 2002, dated 2012)

What was measured:
HAS2 gene [1] = assay: Quantitative RT-PCR of HAS2 mRNA in keratinocyte cell line HaCaT; assay type: cell-based, human; details: HaCaT cells; for increase in HAS2 transcription: 1 μM compound K
Description: (§1) The cells were cultured in Dulbecco's modified Eagle's medium (DMEM) supplemented with 10% fetal bovine serum (HyClone), sodium bicarbonate (3.6 g/l) and antibiotics of streptomycin (100 μg/ml) and penicillin (100 U/ml) (Life Technologies, Inc.) at 37° C. in a humidified atmosphere containing 5% CO2 and 95% air. The culture was changed with fresh medium every 3 days. On reaching the maximum cell-density, the cells were recultured at a 1:5 division ratio. 48 hours before treatment with compound K, the cells were seeded into a tissue culture flask at 1×10^5 cells per 75 cm^2 and cultured in the medium with 10% fetal bovine serum for 24 hours. Subsequently, the cells were cultured in the serum-free medium for another 24 hours and then in fresh serum-free medium supplemented with 1 to 5 μM of compound K for 3, 6, 12, 24 or 48 hours. As a control, the cells were cultured in the medium supplemented with 0.01% vehicle (dimethylsulfoxide, DMSO). In the control, no effect of DMSO on cell growth and differentiation was observed.
(§2) HaCaT cells and HDF cells were washed twice with phosphate buffered saline (PBS) (Life Technologies, Inc.), and total cellular RNA was isolated with TRizol® reagent (GibcoBRL Life Technologies, Grand Island, N.Y.) according to manufacturer's instructions. RNA concentration was measured by spectrophotometry and RNA integrity was checked by agarose gel electrophoresis.
Quantitated total RNA was reverse transcribed, then RT-PCR was performed using HAS1-, HAS2- and HAS3-specific primers. In brief, 4 μg of total RNA was reverse transcribed in 25 μl of reaction mixture containing 2.5 U/μl Superscript II reverse transcriptase (Invitrogen, Carlsbad, Calif.), 1 U/μg RNase inhibitor, 5 mM MgCl2, 50 mM KCl, 10 mM Tris-HCl (pH8.3), 2.5 μM oligo(dT) primers and 1 mM dNTPs. The reaction mixture was gently incubated at 42° C. for 60 min, to be subjected to reverse transcription. Then, the reverse transcriptase was inactivated by heating at 85° C. for 5 min.
Subsequently, 5 μl of the resulting mixture was subjected to PCR. […]

HAS2 gene [2] = assay: Quantitative RT-PCR of HAS2 mRNA in fibroblast cell line HDF; assay type: cell-based, human; details: HDF cells, treatment with compound K for 24 hours, in comparison with no treatment
Description: as §1, with “As a control, the cells were cultured in the medium supplemented with 0.01% vehicle (dimethylsulfoxide, DMSO). In the control, no effect of DMSO on cell growth and differentiation was observed.” left out
as §2
(§3) Quantitated total RNA was reverse transcribed, then RT-PCR was performed using HAS1-, HAS2- and HAS3-specific primers. […]

HAS1 = assay: Quantitative RT-PCR of HAS1 mRNA in HaCaT cells; assay type: cell-based, human; details: 1 μM compound K, 24 or 48 hours
Description: as §1, with “As a control, the cells were cultured in the medium supplemented with 0.01% vehicle (dimethylsulfoxide, DMSO). In the control, no effect of DMSO on cell growth and differentiation was observed.” left out
as §2, §3

HAS3 = assay: Quantitative RT-PCR of HAS3 mRNA in HaCaT cells; assay type: cell-based, human; details: 1 μM compound K, 24 or 48 hours
Description: as §1, with “As a control, the cells were cultured in the medium supplemented with 0.01% vehicle (dimethylsulfoxide, DMSO). In the control, no effect of DMSO on cell growth and differentiation was observed.” left out
as §2, §3

HaCaT cells = assay: Hyaluronic acid production in cultured HaCaT cells, bHABP immunocytochemical staining; assay type: cell-based, human; details: 1 μM compound K, immunocytochemical method
Description: (§4) HaCaT and HDF cells were washed with PBS then fixed in a fixative with 2% paraformaldehyde(v/v) and 0.5% glutaraldehyde(v/v) at room temperature for 20 min. After fixation, the cells were washed three times for 2 min each with 0.1 M sodium phosphate buffer (pH7.4), then blocked in 1% bovine serum albumin (w/v) containing 0.1% Triton X-100 (v/v) in the same buffer at room temperature for 30 min. Hyaluronan staining was carried out with a specific probe of biotinylated hyaluronan binding protein (bHABP) (Seikagaku, Tokyo, Japan). The bHABP probe, diluted to 5 μg/ml in 3% bovine serum albumin (w/v), was added to the fixed cells and was incubated overnight at 4° C. After washing, avidin-fluorescein isothocyanate (FITC) was added.
(§5) HaCaT cells (FIG. 3a, FIG. 3b) and HDF cells (FIG. 3c, FIG. 3d) were cultured in the presence of 1 μM compound K (FIG. 3b, FIG. 3d) or in the absence of compound K (FIG. 3a, FIG. 3c).

HDF cells = assay: Hyaluronic acid production in cultured HDF cells, bHABP immunocytochemical staining; assay type: cell-based, human; details: 1 μM compound K, immunocytochemical method
Description: as §4, §5

hairless mouse skin = assay: Production of hyaluronic acid in hairless mouse skin, bHABP immunohistochemical staining and image analysis; assay type: in vivo; details: hairless mouse back skin, 1%(w/v) compound K solution topically
Description: Male albino Hos:hr-1 mice, 30 weeks old, were purchased from Biogenomics (Seoul, Korea) and had unrestricted access to standard rodent chow and water. After one week of acclimation under controlled conditions of 24±2° C. and 55±10% humidity, 200 μl of 1%(w/v) compound K solution in the vehicle (1,3-BG:ethanol-7:3) was topically applied onto the back of the mouse two times for 2 days. 24 hours after the final administration, each skin sample was collected.
Hyaluronan staining was carried out with bHABP(Seikagaku). Each skin sample was fixed with 2% formaldehyde and 0.5% glutaraldehyde in PBS, embedded and sectioned. After deparaffinization, sections were incubated in 0.3% H2O2 in methanol at room temperature for 30 min, washed with PBS, then blocked in 1% bovine serum albumin. Subsequently the sections were incubated in […] bHABP in PBS at 4° C. then, after washing, incubated with streptoavidin-peroxidase, diluted to 1/300 in PBS at room temperature, for 30 min. […]
Stained slides were quantitatively characterized via digital image analysis using ImagePro-Plus (Media Cybernetics, Silver Spring, Md.). […] Staining score is determined by the following formula 1: Intensity of stain X (total stained area/total area) Equation 1
One-way ANOVA with post-hog Duncan test was performed using SigmaStat (SPSS Inc., Chicago, Ill.). Data were expressed as the mean±SEM. […]

human skin = assay: Clinical trial of skin-care efficacy of emulsion containing compound K; assay type: in vivo
Description: In order to evaluate the efficacy of the cosmetic composition containing compound K, a clinical trial was conducted with forty-nine (49) healthy Korean females aged from 31 to 37 years and having facial wrinkle and fine wrinkle. They were divided into three groups by skin type: normal skin, dry skin and combination skin and used two kinds of oily-water emulsions containing 0.03% compound K or none. Before the trial, all the volunteers were evaluated for facial wrinkle and fine wrinkle with a global photodamage score. All the scores were obtained before use and 4, 8 and 12 weeks after use. Each volunteer applied test samples onto the facial skin twice per day (morning and evening) at their homes, and particularly onto the wrinkles of the eye rims. Skin-care efficacies such as facial wrinkle, fine wrinkle, hydration, elasticity, smoothness, roughness and brightness were evaluated by the volunteers and skin expert inspectors. Difference before and after using topical samples and improvement were determined by photometry evaluation with Camscope® (model DCS-105) and by image analysis of silicon replica with Skin-Visiometer SV 600 (Courage & Khazaka, Germany).

[3] = emulsion with 0.03% compound K, after 8 weeks of use

Question: How did the “increase in HAS2 transcription” value (HAS2 gene [1]; 24 hours incubation) turn out when `CC(C)=CCC[C@](C)(OCC1OC(CO)C(O)C(O)C1O)C1CC[C@]2(C)C1C(O)CC1C3(C)CCC(O)C(C)(C)C3CCC12C` (stereo partly drawn) [compound K, 20-O-β-D-glucopyranosyl-20(S)-protopanaxadiol] was run?
Answer: about 3 times

Question: And the “increase in HAS2 transcription” value (HAS2 gene [1]; 48 hours incubation)?
Answer: about 5 times

Question: And the “increase in HAS2 gene expression (HAS2 mRNA) versus control” value (HAS2 gene [1]; treatment with compound K for 24 hours, in comparison with no treatment)?
Answer: 3 times

Question: And the “increase in HAS2 gene expression (HAS2 mRNA) versus control” value (HAS2 gene [2])?
Answer: 2.5 times

Question: What about the “effect on HAS1 mRNA level” value (HAS1) of the same compound?
Answer: did not influence

Question: What about the “effect on HAS3 mRNA level” value (HAS3) of the same compound?
Answer: did not influence

Question: And the “production of hyaluronic acid in cultured cells” value (HaCaT cells)?
Answer: increased production of hyaluronic acid was confirmed

Question: What about the “production of hyaluronic acid in cultured cells” value (HDF cells) of the same compound?
Answer: increased production of hyaluronic acid was confirmed

Question: What about the “hyaluronic acid in skin (immunohistochemical staining)” value (hairless mouse skin) of the same compound?
Answer: significantly increased

Question: And the “wrinkle, hydration, elasticity, smoothness and brightness of human skin” value (human skin; compound K-containing topical composition applied onto the human skin)?
Answer: improved

Question: And the “volunteers answering improvement in skin brightness” value (human skin; emulsion with 0.03% compound K)?
Answer: 68%

Question: And the “volunteers answering improvement in skin elasticity” value (human skin; emulsion with 0.03% compound K)?
Answer: 68%

Question: What about the “volunteers answering improvement in skin roughness” value (human skin; emulsion with 0.03% compound K) of the same compound?
Answer: 94%

Question: And the “volunteers answering improvement in skin smoothness” value (human skin; emulsion with 0.03% compound K)?
Answer: 92%

Question: And the “volunteers answering increase in skin moisturizing capacity” value (human skin; emulsion with 0.03% compound K)?
Answer: 88%

Question: What about the “facial wrinkle and fine wrinkle, global photodamage score by skin expert inspectors” value (human skin; emulsion with 0.03% compound K twice per day on facial skin, 12 weeks of use versus initial values and control emulsion) of the same compound?
Answer: statistically significant decrease

Question: What about the “total wrinkle in skin replica analysis” value (human skin; [3]) of the same compound?
Answer: decreased statistically significantly

Question: What about the “volunteers giving positive and affirmative estimate” value (human skin; [3]) of the same compound?
Answer: 76%

Question: What about the “volunteers giving positive and affirmative estimate” value (human skin; emulsion with 0.03% compound K, after 12 weeks of use) of the same compound?
Answer: 92%
